Experimental data: US10617748B2, “Immunogenic control of tumours and tumour cells” (LIFE SCIENCES RESEARCH PARTNERS VZW, priority 2008, dated 2020)
Peptide text beside a SMILES is read from it.

What was measured:
[1] = tested on: APCs presenting the natural or modified MAGE-3 T-cell epitope; assay: Cytotoxic CD4+ T cells elicited by in vivo immunisation; apoptosis (annexin V, Facs) of peptide-loaded APC in co-culture, MAGE-3 epitope; parameters: species or system C57BI/6 mice; conditions: 25 μg peptide, 3 footpath injections in CFA/IFA; splenic CD4+ T cells co-cultured 24 h with APC loaded with SEQ ID NO:1 or SEQ ID NO:2 (5 μg/mL)
Procedure: The sequence of the (natural) T-cell epitope corresponds to amino acids 258 to 266 of MAGE-3, namely: YRQVPGSDP (SEQ ID NO:1).
(§1) Finally, cells are analysed by Facs analysis.

[2] = tested on: APCs presenting the natural or modified survivin T-cell epitope; assay: Cytotoxic CD4+ T cells elicited by in vivo immunisation; apoptosis (annexin V, Facs) of peptide-loaded APC in co-culture, survivin epitope; parameters: species or system C57BI/6 mice; conditions: 25 μg peptide, 3 footpath injections in CFA/IFA; splenic CD4+ T cells co-cultured 24 h with APC loaded with SEQ ID NO:5 or SEQ ID NO:6 (5 μg/mL)
Procedure: The sequence of the peptide corresponds to amino acids 61 to 69 of survivin, namely: FKELEGWEP (SEQ ID NO:5).
as §1

[3] = tested on: APCs presenting the natural or modified Epstein-Barr LMP2 T-cell epitope; assay: Cytotoxic CD4+ T cells elicited by in vivo immunisation; apoptosis (annexin V, Facs) of peptide-loaded APC in co-culture, Epstein-Barr LMP2 epitope; parameters: species or system BALB/c mice; conditions: 25 μg peptide, 3 footpath injections in CFA/IFA; splenic CD4+ T cells co-cultured 24 h with APC loaded with SEQ ID NO:7 or SEQ ID NO:8 (5 μg/mL)
Procedure: The sequence of the peptide corresponds to amino acids 167 to 175 of LMP2, namely: VASSYAAAQ (SEQ ID NO:7).
Spleen adherent cells prepared from naïve BALB/c mice are used as antigen-presenting cells (APC).
as §1

CC(C)[C@H](NC(=O)[C@H](CCC(N)=O)NC(=O)[C@H](CCCNC(=N)N)NC(=O)[C@H](Cc1ccc(O)cc1)NC(=O)[C@H](CS)NC(=O)CNC(=O)[C@H](Cc1c[nH]cn1)NC(=O)[C@@H](N)CS)C(=O)N1CCC[C@H]1C(=O)NCC(=O)N[C@@H](CO)C(=O)N[C@@H](CC(=O)O)C(=O)N1CCC[C@H]1C(=O)O [SEQ ID NO:2, CHGCYRQVPGSDP] (H-CHGCYRQVPGSDP-OH)
elicitation of CD4+ T cells with cytotoxic properties towards APCs [1]: can elicit CD4+ T cells with cytotoxic properties

CC(C)C[C@H](NC(=O)[C@H](CCC(=O)O)NC(=O)[C@H](CCCCN)NC(=O)[C@H](Cc1ccccc1)NC(=O)[C@H](CS)NC(=O)CNC(=O)[C@H](Cc1c[nH]cn1)NC(=O)[C@@H](N)CS)C(=O)N[C@@H](CCC(=O)O)C(=O)NCC(=O)N[C@@H](Cc1c[nH]c2ccccc12)C(=O)N[C@@H](CCC(=O)O)C(=O)N1CCC[C@H]1C(=O)O [SEQ ID NO:6, CHGCFKELEGWEP] (H-CHGCFKELEGWEP-OH)
elicitation of CD4+ T cells with cytotoxic properties towards APCs [2]: can elicit CD4+ T cells with cytotoxic properties

CC(C)[C@H](NC(=O)[C@H](CS)NC(=O)CNC(=O)[C@H](Cc1c[nH]cn1)NC(=O)[C@@H](N)CS)C(=O)N[C@@H](C)C(=O)N[C@@H](CO)C(=O)N[C@@H](CO)C(=O)N[C@@H](Cc1ccc(O)cc1)C(=O)N[C@@H](C)C(=O)N[C@@H](C)C(=O)N[C@@H](C)C(=O)N[C@@H](CCC(N)=O)C(=O)O [SEQ ID NO:8, CHGCVASSYAAAQ] (H-CHGCVASSYAAAQ-OH)
elicitation of CD4+ T cells with cytotoxic properties towards APCs [3]: can elicit CD4+ T cells with cytotoxic properties
